# According to patent publication US20250127914A1, “ANTIBODY-CONJUGATED 8-SULFONYL-BENZAZEPINE COMPOUNDS AND THEIR USES” (BOLT BIOTHERAPEUTICS, INC., priority 2022, published 2025):
# Tests used:
# human TLR8 = biological target: T1, human TLR8 (Homo sapiens, UniProt Q9NR97); assay: HEK Reporter Assay, human TLR8; type: cell-based; conditions: HEK293 NFKB reporter cells expressing human TLR8; read-out: HEK293 hTLR8 EC50
# T1 construct: host or cells: HEK293 NF-kB reporter cells
# T1 sequence (Q9NR97 27-1041): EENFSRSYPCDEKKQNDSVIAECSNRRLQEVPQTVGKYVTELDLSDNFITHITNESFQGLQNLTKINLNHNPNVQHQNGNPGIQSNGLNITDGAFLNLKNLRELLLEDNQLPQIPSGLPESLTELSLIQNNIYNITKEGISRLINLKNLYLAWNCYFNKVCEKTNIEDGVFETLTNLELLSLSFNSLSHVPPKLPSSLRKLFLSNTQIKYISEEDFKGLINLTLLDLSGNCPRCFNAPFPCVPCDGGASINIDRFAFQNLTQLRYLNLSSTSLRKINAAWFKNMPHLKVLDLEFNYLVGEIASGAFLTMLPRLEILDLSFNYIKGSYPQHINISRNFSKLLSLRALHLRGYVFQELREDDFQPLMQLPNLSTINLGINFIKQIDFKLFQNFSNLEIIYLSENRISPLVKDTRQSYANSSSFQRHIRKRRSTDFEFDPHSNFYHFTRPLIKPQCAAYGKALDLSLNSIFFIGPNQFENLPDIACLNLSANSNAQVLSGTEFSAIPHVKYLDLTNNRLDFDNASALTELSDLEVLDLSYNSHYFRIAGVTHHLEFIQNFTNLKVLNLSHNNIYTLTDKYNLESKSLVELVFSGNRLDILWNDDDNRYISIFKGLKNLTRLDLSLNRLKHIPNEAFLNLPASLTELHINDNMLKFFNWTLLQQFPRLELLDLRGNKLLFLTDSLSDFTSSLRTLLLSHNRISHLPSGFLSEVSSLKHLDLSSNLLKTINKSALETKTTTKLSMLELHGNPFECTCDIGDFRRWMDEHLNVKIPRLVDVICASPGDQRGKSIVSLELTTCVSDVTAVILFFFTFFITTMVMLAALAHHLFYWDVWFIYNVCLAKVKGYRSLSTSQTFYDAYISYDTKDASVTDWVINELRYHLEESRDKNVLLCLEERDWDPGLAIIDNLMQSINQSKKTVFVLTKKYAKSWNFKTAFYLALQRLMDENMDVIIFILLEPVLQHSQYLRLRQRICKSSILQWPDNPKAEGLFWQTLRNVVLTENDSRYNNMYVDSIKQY
# Protocol: (§1) Exemplary 8-sulfonyl-2-aminobenzazepine compounds (8SO2Bz) of the invention were synthesized, purified, and characterized by mass spectrometry and shown to have the expected mass. Additional experimental procedures are found in the Examples. Activity against HEK293 NFKB reporter cells expressing human TLR7 or human TLR8 was measured according to Example 202.
# (§2) HEK293 reporter cells expressing human TLR7 or human TLR8 were purchased from Invivogen and vendor protocols were followed for cellular propagation and experimentation. Briefly, cells were grown to 80-85% confluence at 5% CO2 in DMEM supplemented with 10% FBS, Zeocin, and Blasticidin. Cells were then seeded in 96-well flat plates at 4×10^4 cells/well with substrate containing HEK detection medium and immunostimulatory molecules. Activity was measured using a plate reader at 620-655 nm wavelength.
# human TLR7 = biological target: T2, human TLR7 (Homo sapiens, UniProt Q9NYK1); assay: HEK Reporter Assay, human TLR7; type: cell-based; conditions: HEK293 NFKB reporter cells expressing human TLR7; read-out: HEK293 hTLR7 EC50
# T2 construct: host or cells: HEK293 NF-kB reporter cells
# T2 sequence (Q9NYK1 27-1049): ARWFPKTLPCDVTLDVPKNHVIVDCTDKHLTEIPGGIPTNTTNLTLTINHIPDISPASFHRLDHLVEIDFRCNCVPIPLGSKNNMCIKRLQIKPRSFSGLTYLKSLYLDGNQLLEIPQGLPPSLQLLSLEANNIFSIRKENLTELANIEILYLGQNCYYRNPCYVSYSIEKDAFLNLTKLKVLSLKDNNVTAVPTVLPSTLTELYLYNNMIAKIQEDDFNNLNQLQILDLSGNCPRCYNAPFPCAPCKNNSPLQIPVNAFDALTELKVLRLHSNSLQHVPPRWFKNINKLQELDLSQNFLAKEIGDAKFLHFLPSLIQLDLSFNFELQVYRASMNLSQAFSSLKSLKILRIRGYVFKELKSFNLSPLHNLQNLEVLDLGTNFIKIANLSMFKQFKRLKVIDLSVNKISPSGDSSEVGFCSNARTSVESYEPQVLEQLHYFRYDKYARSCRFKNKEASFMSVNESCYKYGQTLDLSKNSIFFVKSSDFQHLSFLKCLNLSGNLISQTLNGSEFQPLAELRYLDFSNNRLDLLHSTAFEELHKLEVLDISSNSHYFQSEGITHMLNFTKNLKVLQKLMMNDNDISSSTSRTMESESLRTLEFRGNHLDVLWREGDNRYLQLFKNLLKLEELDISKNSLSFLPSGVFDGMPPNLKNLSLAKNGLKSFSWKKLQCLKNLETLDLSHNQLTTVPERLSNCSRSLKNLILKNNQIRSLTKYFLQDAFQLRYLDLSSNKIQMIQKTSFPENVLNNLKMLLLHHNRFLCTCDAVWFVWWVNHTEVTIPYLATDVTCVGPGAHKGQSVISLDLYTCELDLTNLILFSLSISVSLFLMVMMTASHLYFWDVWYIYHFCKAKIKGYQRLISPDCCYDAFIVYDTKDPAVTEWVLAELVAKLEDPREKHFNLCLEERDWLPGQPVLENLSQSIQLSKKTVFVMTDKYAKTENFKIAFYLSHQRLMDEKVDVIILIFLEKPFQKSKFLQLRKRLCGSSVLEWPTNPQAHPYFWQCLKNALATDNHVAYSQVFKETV
# Protocol: as §1, §2
EC50 (human TLR8) [nM],EC50 (human TLR7) [nM],SMILES
202,,CCCN(OCC)C(=O)C1=Cc2ccc(S(=O)(=O)NC)cc2N=C(N)C1 [Immunoconjugate 8SO2Bz-3]
< 2.3,395,CCCN(OCCNC(=O)OC(C)(C)C)C(=O)C1=Cc2ccc(S(=O)(=O)N(C)C)cc2N=C(N)C1 [Immunoconjugate 8SO2Bz-2]
1060,,CCCN(OCC)C(=O)C1=Cc2ccc(S(=O)(=O)c3ccc(C(=O)OC)cc3)cc2N=C(N)C1
